Laboratory results published in ChEMBL document CHEMBL1201862, “PubChem BioAssay data set” (2004).
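Results reflect a 48-hour exposure of cells in 96-well plates to compound at five concentrations. GI50: concentration for 50% inhibition of growth.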 Active and inactive are the calls of the source. Cut-off read from the data, not from the text of the source: active = GI50 up to about 1.1 µM and inactive = higher.

Experiments:
Assay in all cases: NCI-60 cell line screen, 48 h
OVCAR-5 = system: OVCAR-5
LOX IMVI = system: LOX IMVI
SF-268 = system: SF-268
DU-145 = system: DU-145
K562 = system: K562
RXF 393 = system: RXF 393
COLO 205 = system: COLO 205
MDA-MB-435 = system: MDA-MB-435
NCI-H522 = system: NCI-H522
BT-549 = system: BT-549
KM12 = system: KM12
A549 = system: A549
IGROV-1 = system: IGROV-1
HT-29 = system: HT-29
OVCAR-3 = system: OVCAR-3
HOP-62 = system: HOP-62
SN12C = system: SN12C
SNB-19 = system: SNB-19
HCT-15 = system: HCT-15
CAKI-1 = system: CAKI-1

Compound	GI50 (OVCAR-5)	GI50 (LOX IMVI)	GI50 (SF-268)	GI50 (DU-145)	GI50 (K562)	GI50 (RXF 393)	GI50 (COLO 205)	GI50 (MDA-MB-435)	GI50 (NCI-H522)	GI50 (BT-549)	GI50 (KM12)	GI50 (A549)	GI50 (IGROV-1)	GI50 (HT-29)	GI50 (OVCAR-3)	GI50 (HOP-62)	GI50 (SN12C)	GI50 (SNB-19)	GI50 (HCT-15) [µM]	GI50 (CAKI-1)
Nc1ccc2c(c1)N(C(=O)c1cc3cc(NC(=O)c4cc5ccccc5o4)ccc3[nH]1)CC2CCl (stereo not given)	0.114 µM (active)	0.0398 µM (active)	0.0498 µM (active)	0.0254 µM (active)	0.0662 µM (active)	0.018 µM (active)	0.0904 µM (active)	0.162 µM (active)	< 0.01 µM (active)	0.164 µM (active)	0.115 µM (active)	0.0299 µM (active)	0.108 µM (active)	0.129 µM (active)	0.0743 µM (active)	0.138 µM (active)	0.215 µM (active)	0.277 µM (active)	0.0847	0.0338 µM (active)
Cc1sc2nc(-c3ccc(Cl)c([N+](=O)[O-])c3)c(/C=N/NC(=N)N)n2c1C	1.58 µM (inactive)	0.585 µM (active)	1.85 µM (inactive)	1.93 µM (inactive)	2.39 µM (inactive)	1.52 µM (inactive)	0.282 µM (active)	1.51 µM (inactive)	1.71 µM (inactive)	1.7 µM (inactive)	0.45 µM (active)	1.62 µM (inactive)	1.09 µM (active)	1.35 µM (inactive)	1.69 µM (inactive)	0.471 µM (active)	1.31 µM (inactive)	1.48 µM (inactive)	1.37	1.62 µM (inactive)
C=C(C)[C@H]1C2=CC(C(=O)OC)=C(C[C@H](C(=C)C)[C@@H](O)[C@@H](O)C3=C[C@H]1OC3=O)O2	> 100 µM (inactive)	> 100 µM (inactive)	> 100 µM (inactive)	> 100 µM (inactive)	> 100 µM (inactive)	> 100 µM (inactive)	> 100 µM (inactive)	> 100 µM (inactive)	> 100 µM (inactive)	> 100 µM (inactive)	> 100 µM (inactive)	> 100 µM (inactive)	80.2 µM (inactive)	> 100 µM (inactive)	> 100 µM (inactive)	> 100 µM (inactive)	> 100 µM (inactive)	> 100 µM (inactive)	59.8	> 100 µM (inactive)
C=C1C(=O)O[C@@H]2/C=C(/C)[C@@H](OC(C)=O)C/C=C(\C)C(O)[C@@H](OC(=O)/C(C)=C\C)C12 (stereo not given in full)	58.2 µM (inactive)	14.6 µM (inactive)	38.3 µM (inactive)	43.7 µM (inactive)	22.6 µM (inactive)	26.8 µM (inactive)	18.1 µM (inactive)	20.4 µM (inactive)	13.4 µM (inactive)	20.1 µM (inactive)	68.7 µM (inactive)	95.7 µM (inactive)	50.7 µM (inactive)	20.6 µM (inactive)	35.7 µM (inactive)	> 100 µM (inactive)	21 µM (inactive)	> 100 µM (inactive)	16.5	24.2 µM (inactive)
CN(C)c1ccc(/C=N/NC2=N/C(=C\c3ccco3)C(=O)N2)cc1	> 100 µM (inactive)	> 100 µM (inactive)	> 100 µM (inactive)	> 100 µM (inactive)	> 100 µM (inactive)	> 100 µM (inactive)	> 100 µM (inactive)	> 100 µM (inactive)	> 100 µM (inactive)	> 100 µM (inactive)	> 100 µM (inactive)	> 100 µM (inactive)	> 100 µM (inactive)	> 100 µM (inactive)	> 100 µM (inactive)	> 100 µM (inactive)	> 100 µM (inactive)	> 100 µM (inactive)	> 100	> 100 µM (inactive)
CCOC(=O)CC[C@H](N)C(=O)N[C@@H](Cc1ccc(N(CCCl)CCCl)cc1)C(=O)OCC	2.39 µM (inactive)	0.184 µM (active)	0.711 µM (active)	0.324 µM (active)	0.895 µM (active)	0.658 µM (active)	0.938 µM (active)	1.39 µM (inactive)	1.12 µM (active)	7.83 µM (inactive)	4.61 µM (inactive)	2.73 µM (inactive)	1.56 µM (inactive)	1.1 µM (active)	0.652 µM (active)	2.37 µM (inactive)	2.15 µM (inactive)	4.69 µM (inactive)	0.726	0.358 µM (active)
CC1CSC(=S)N1C(=O)N1C(=S)SCC1C (stereo not given)	30.3 µM (inactive)	20.4 µM (inactive)	26.3 µM (inactive)	19.5 µM (inactive)	20.1 µM (inactive)	12.9 µM (inactive)	16.3 µM (inactive)	17.2 µM (inactive)	11.5 µM (inactive)	24.7 µM (inactive)	27.8 µM (inactive)	35.6 µM (inactive)	18.5 µM (inactive)	27.4 µM (inactive)	27.4 µM (inactive)	43.4 µM (inactive)	20.5 µM (inactive)	63.8 µM (inactive)	16.5	20.4 µM (inactive)
Cn1c2ccccc2n2c3ncccc3c(=S)c(C#N)c12	> 100 µM (inactive)	> 100 µM (inactive)	> 100 µM (inactive)	> 100 µM (inactive)	> 100 µM (inactive)	> 100 µM (inactive)	> 100 µM (inactive)	> 100 µM (inactive)	> 100 µM (inactive)	> 100 µM (inactive)	> 100 µM (inactive)	> 100 µM (inactive)	> 100 µM (inactive)	> 100 µM (inactive)	> 100 µM (inactive)	> 100 µM (inactive)	> 100 µM (inactive)	> 100 µM (inactive)	> 100	> 100 µM (inactive)
COc1cc([C@@H]2c3cc4c(cc3[C@@H](OC3OC5CO[C@@H](c6cccs6)OC5C(O)C3O)[C@H]3COC(=O)[C@H]23)OCO4)cc(OC)c1O (stereo not given in full)	1.77 µM (inactive)	0.206 µM (active)	0.48 µM (active)	0.324 µM (active)	0.724 µM (active)	0.478 µM (active)	0.527 µM (active)	1.34 µM (inactive)	0.482 µM (active)	0.586 µM (active)	0.753 µM (active)	0.144 µM (active)	1.7 µM (inactive)	1.61 µM (inactive)	1.73 µM (inactive)	0.135 µM (active)	0.313 µM (active)	0.299 µM (active)	1.55	0.0733 µM (active)
Cc1ccc2c(c1)CN(C(=O)CCC(=O)OCc1ccccc1)c1ccc(C)cc1CN2C(=O)CCC(=O)OCc1ccccc1	> 100 µM (inactive)	> 100 µM (inactive)	> 100 µM (inactive)	> 100 µM (inactive)	> 100 µM (inactive)	> 100 µM (inactive)	> 100 µM (inactive)	> 100 µM (inactive)	> 100 µM (inactive)	> 100 µM (inactive)	99.3 µM (inactive)	> 100 µM (inactive)	> 100 µM (inactive)	> 100 µM (inactive)	> 100 µM (inactive)	> 78 µM (inactive)	> 100 µM (inactive)	> 100 µM (inactive)	> 100	> 100 µM (inactive)
